Test results reported in publication PMC6154534, “New Benzimidazole-1,2,4-Triazole Hybrid Compounds: Synthesis, Anticandidal Activity and Cytotoxicity Evaluation” (Molecules : A Journal of Synthetic Chemistry and Natural …, 2017).
In brackets after ≈: the same amount, converted by molar mass.

How the values were obtained:
[1] = tested on: NIH/3T3 mouse embryonic fibroblast cell line (ATCC CRL1658); assay: MTT cytotoxicity assay; format: cell-based; conditions: NIH3T3, tested 800 to 0.78 µg/mL, read-out: IC50 on NIH/3T3 mouse embryonic fibroblast cell lines
Excerpt: Toxicity is a key cause of failure at all steps of the new drug development process. The most part of safety-related problems occur at preclinical phases to predict preclinical safety liabilities earlier in the new drug development process. This approach allows to design and/or selection of better drug candidates that have more potentials to be marketed drugs. […] Cytotoxicities of selected compounds (5m, 5o, 5r, 5w, 5y, 5ab, and 5ad), displaying strong anticandidal activity and good predicted pharmacokinetics, were determined against NIH/3T3 mouse embryonic fibroblast cell lines (ATCC CRL1658).
Cytotoxicity was tested using the NIH/3T3 mouse embryonic fibroblast cell line (ATCC® CRL-1658™, London, UK). NIH/3T3 cells were incubated according to the supplier’s recommendations and they were seeded at 1 × 10^4 cells into each well of 96-well plates. MTT assay was performed as previously described. The compounds were tested in a concentration range of 800 µg/mL and 0.78 µg/mL concentrations. Percent inhibition was calculated for each concentration according to the formula below, and IC50 values were determined by plotting a concentration–response curve of inhibition percent versus compound concentrations tested.

[2] = tested on: Candida species; assay: Anticandidal broth microdilution, results summarised over all strains; format: cell-based; conditions: summary over all four Candida strains; for MIC50: Candida, read-out: MIC50 against Candida species
Experimental: (§1) Synthesized compounds (5a-5ad) were evaluated for anticandidal activity against C. albicans (ATCC 24433), C. krusei (ATCC 6258), C. parapsilosis (ATCC 22019) and C. [NT] 90030). MIC50 values were evaluated via fluorometric measurements, using resazurin solution [56, 57]. […] [NT] 90030). MIC readings were carried out twice for each chemical agent. The yeasts were maintained in RPMI after overnight incubation at 37 °C. The inocula of test microorganisms adjusted to match the turbidity of a MacFarland 0.5 standard tube as determined with a spectrophotometer and the final inoculum size was 0.5-2.5 × 10^5 cfu/mL for antifungal assay. Testing was carried out in RPMI at pH = 7 and the two-fold serial dilutions technique was applied. The last well on the microplates containing only inoculated broth was kept as controls and the last well with no growth of microorganism was recorded to represent the MIC50 expressed in μg/mL. For the antifungal assays, the compounds were dissolved in DMSO. […] The completed plates were incubated for 24 h. At the end of the incubation, resazurin (20 μg/mL) was added into each well to control whether the growth in wells. Then, plates were allowed to incubate for 2 h. MIC50 values were determined using a microplate reader at […].

[3] = tested on: ergosterol biosynthesis in C. albicans (ATCC 24433); assay: Quantification of ergosterol level by LC-MS-MS; format: cell-based; conditions: 0.78, 1.56 and 3.12 µg/mL, 16 h, negative control = 100%
Excerpt: The most of therapies, planned to treat fungal infections, target in the ergosterol biosynthesis pathway or its end product, ergosterol, a membrane sterol that is unique to fungi. It is the main sterol, and thus is essential for growth and normal membrane function of fungal cell. Besides serving as a bioregulator of membrane fluidity, asymmetry and integrity, it contributes to proper function of membrane-bound enzymes. […] Total intracellular sterols were extracted as reported by Breivik and Owades. […] Ergosterol standard (Product No. 45480, Sigma-Aldrich, Darmstadt, Germany) was used for quantification of ergosterol in both inhibitor-free (negative control) and inhibitor including samples. Ergosterol quantity in negative control samples was regarded as 100%. All concentrations were analyzed in quadruplicate, and the results were expressed as mean ± standard deviation (SD) (Figure 2).
Total intracellular sterols were extracted as reported by Breivik and Owades with slight modifications. […] The cultures were incubated for 16 h with shaking at 35 °C. […] Ergosterol quantity in negative control samples was regarded as 100%. All concentrations were analyzed in quadruplicate, and the results were expressed as mean ± standard deviation (SD).

[4] = tested on: C. parapsilosis (ATCC 22019); assay: Anticandidal broth microdilution (EUCAST EDef 7.1), resazurin fluorometric readout; format: cell-based; conditions: Lodderomyces parapsilosis, ATCC22019; ATCC 22019, RPMI pH 7, 24 h incubation; read-out: MIC50 C. parapsilopsis
Experimental: as §1

[5] = tested on: C. krusei (ATCC 6258); assay: as above; format: cell-based; conditions: Pichia kudriavzevii, ATCC6258; ATCC 6258, RPMI pH 7, 24 h incubation
Experimental: as §1

[6] = tested on: C. glabrata (ATCC 90030); assay: as above; format: cell-based; conditions: Nakaseomyces glabratus, ATCC90030; ATCC 90030, RPMI pH 7, 24 h incubation
Experimental: as §1

[7] = tested on: C. albicans (ATCC 24433); assay: as above; format: cell-based; conditions: Candida albicans, ATCC24433; ATCC 24433, RPMI pH 7, 24 h incubation
Experimental: as §1

[8] = tested on: C. albicans; assay: Fluorescence microscopy (Live/Dead BacLight, SYTO-9 / PI); format: cell-based; conditions: 3.12 µg/mL (4 × MIC50), 2 h
Excerpt: Ergosterol is the major fungal membrane sterol that regulates membrane fluidity, plasma membrane biogenesis and functions. […] It is known that propidium iodide (PI) enters only cells with damaged membranes, while SYTO-9 marks cells with both damaged and unaffected membranes. […] Consequently, fluorescence microscopic experiments supported the findings observed in inhibition of biosynthesis of ergosterol, which is a vital sterol regulating membrane functions. The Live/Dead BacLight viability kit from Molecular Probes, Inc. (Eugene, OR, USA) was used as reported by Nobman et al.. In this assay, the SYTO-9 and PI stains are in competition to bind to fungal nucleic acid. PI enters only cells with damaged membranes, while SYTO-9 marks cells with both damaged and unaffected membranes. A culture of C. albicans was grownup to mid-log phase in 20 mL of SDB. Twenty milliliters of the yeast culture was divided into two equal parts. […] The second culture was incubated under same conditions without a compound. Both cultures were centrifuged at 3000 rpm for 10 min. and then cell pellets were incubated with PI and SYTO9 at 40 °C for 30 min. The stained yeast cultures were observed under a fluorescence microscope (Carl-Zeis, Axio Scope.A1, Göttingen, Germany) using 100× oil-immersion objective.

SMILES	IC50 [1] [µg/mL]	melting point [°C]	MIC50 [2] [µg/mL]	level of ergosterol in C. albicans (in words) [3]	MIC50 [4] [µg/mL]	MIC50 [5] [µg/mL]	MIC50 [6] [µg/mL]	MIC50 [7] [µg/mL]	effect on C. albicans cell membrane (PI penetration) [8]	MIC50 against Candida species [2] [µg/mL]
CCn1c(SCC(=O)c2ccc(F)cc2F)nnc1-c1ccc(-c2nc3ccc(F)cc3[nH]2)cc1 [Compound 5ad, 1-(2,4-Difluorophenyl)-2-((4-ethyl-5-(4-(6-fluoro-1H-benzimidazol-2-yl)phenyl)-4H-1,2,4-triazol-3-yl)thio)ethan-1-one]	120 ± 4.39 (≈ 242 µM)	234.2	0.78 to 1.56 (≈ 1.58 to 3.16 µM)	significantly decreased the level of ergosterol at all tested concentrations	0.78 (≈ 1.58 µM)	1.56 (≈ 3.16 µM)	0.78 (≈ 1.58 µM)	0.78 (≈ 1.58 µM)		
Cn1c(SCC(=O)c2ccc(F)cc2)nnc1-c1ccc(-c2nc3ccc(F)cc3[nH]2)cc1 [Compound 5w, 2-((5-(4-(6-Fluoro-1H-benzimidazol-2-yl)phenyl)-4-methyl-4H-1,2,4-triazol-3-yl)thio)-1-(4-fluorophenyl)ethan-1-one]	65.3 ± 2.94 (≈ 141 µM)		0.78 (≈ 1.69 µM)	significantly decreased the level of ergosterol at all tested concentrations	0.78 (≈ 1.69 µM)	0.78 (≈ 1.69 µM)	0.78 (≈ 1.69 µM)	0.78 (≈ 1.69 µM)	membrane damaging effect	0.78 to 1.56
